Results taken from patent publication US10696989B2, “Biological method for preparing heme iron not derived from porcine blood” (INTRON BIOTECHNOLOGY, INC., priority 2017, dated 2020).

System: iron-deficiency-anemia-induced animals
Assay: Effectiveness of heme iron salt on alleviating anemia in iron-deficiency-anemia-induced rats
Assay type: in vivo, Sprague-Dawley rats
Details: oral once a day, 0.1 mg Fe/500 μl saline
Procedure: The salt of the heme iron prepared according to the present invention was dissolved in saline and administered to iron-deficiency-anemia-induced animals, whereby the effectiveness of the salt of the heme iron prepared according to the present invention on alleviating anemia was evaluated. Specifically, thirty 7-week-old Sprague-Dawley rats (female) were divided into 3 groups of 10 rats per group, among which one group was fed with normal feed in an amount of 10% of body weight daily for one month (Group 1; control), and the remaining two groups were fed with iron-deficient feed in an amount of 10% of body weight daily for one month to induce iron-deficiency anemia (Group 2 and Group 3). After one month of feeding, it was confirmed that iron-deficiency anemia was induced in the individual rat belonging to Group 2 and Group 3. Then, one of the anemia-induced groups was orally administered once a day with saline alone (Group 2), and the other anemia-induced group was orally administered once a day with saline containing heme iron (0.1 mg Fe/500 μl saline) (Group 3). The administration continued for 30 days, and the occurrence of abnormal symptoms was monitored during the administration period. After 30 days of administration, blood was collected, and whether anemia was alleviated was evaluated. During 30 days of administration to Group 2 and Group 3, Group 1 was continuously fed with normal feed, and Group 2 and Group 3 were fed with iron-deficient feed. […]

[1] = female rats on iron-deficient feed, blood collected after 30 days

heme iron
Weight of rats on 30th day after administration (female rats on iron-deficient feed, 30 days): 265.2 ± 1.1 g
Blood test: Hematocrit [1]: 35.8 ± 1.9%
Blood test: Hemoglobin content [1]: 14.2 ± 0.4 g/dL
Blood test: Mean corpuscular volume [1]: 48.2 ± 2.2 fL
Blood test: RBC [1]: 8.59 ± 0.1 ×10^6/μl
Alleviation of iron-deficiency anemia (conclusion) (30 days): effective at alleviating iron-deficiency anemia
Occurrence of abnormal symptoms during the administration period (30 days): no abnormal symptoms
